Reference: US3939143A, “1-N-isoserylkanamycins and the production thereof” (Zaidan Hojin Biseibutsu Kagaku Kenkyu Kai, priority 1973, dated 1976)
Values after ≈ are worked out from the molar mass of the structure shown. Like-named read-outs stand apart in the source and are kept apart here.

Assays:
[1] = tested on: gram-negative and gram-positive bacteria; assay: antibacterial activity, in words; format: cell-based; settings: gram-negative and gram-positive bacteria sensitive to kanamycins
Experimental: (§1) The minimum inhibitory concentrations (mcg/ml) of 1-N-DL-isoserylkanamycin,1-N-DL-isoserylkanamycin B and 1-N-DL-isoseryl-3',4'-dideoxykanamycin B against various microorganisms were determined according to the serial dilution method using nutrient agar medium at 37°C, the estimation being effected after 18 hours incubation. For comparison purposes, the minimum inhibitory concentrations of kanamycin, kanamycin B and 3',4'-dideoxykanamycin B were also determined in the same manner and under the same conditions as mentioned above.
(§2) The antibacterial spectra of 1-N-DL-isoseryl-kanamycin (abbreviated as 1-IS-KM), 1-N-DL-isoseryl-kanamycin B (abbreviated as 1-IS-KMB) and 1-N-DL-isoseryl-3',4'-dideoxykanamycin B (abbreviated as 1-IS-DKB) are shown in the following table together with those of kanamycin (abbreviatedas KM), kanamycin B (abbreviated as KMB) and 3',4'-dideoxykanamycin B (abbreviated as DKB).

[2] = tested on: Staphylococcus aureus FDA 209P; assay: Minimum inhibitory concentration, serial dilution on nutrient agar; format: cell-based; settings: FDA209P, read-out: Minimum Inhibitory Concentration
[3] = tested on: Escherichia coli W677; assay: as above; format: cell-based; settings: read-out: Minimum Inhibitory Concentration
[4] = tested on: Pseudomonas aeruginosa No.12; assay: as above; format: cell-based; settings: read-out: Minimum Inhibitory Concentration
[5] = tested on: Salmonella enteritidis 1891; assay: as above; format: cell-based; settings: Salmonella enterica, read-out: Minimum Inhibitory Concentration
[6] = tested on: Escherichia coli LA290 R55; assay: as above; format: cell-based; settings: LA290R55, 18 h, read-out: Minimum Inhibitory Concentration
[7] = tested on: Escherichia coli K-12 ML 1410 R81; assay: as above; format: cell-based; settings: 18 h, read-out: Minimum Inhibitory Concentration
[8] = tested on: Klebsiella pneumoniae PCI 602; assay: as above; format: cell-based; settings: read-out: Minimum Inhibitory Concentration
[9] = acute toxicity upon intravenous injection in mice; format: in vivo; settings: mouse, in vivo; intravenous injection, mice
[10] = tested on: Staphylococcus aureus Smith; assay: Minimum inhibitory concentration, serial dilution on nutrient agar; format: cell-based; settings: read-out: Minimum Inhibitory Concentration
[11] = tested on: Shigella dysenteriae JS 11910; assay: as above; format: cell-based; settings: JS11910, 18 h, read-out: Minimum Inhibitory Concentration
[12] = tested on: Escherichia coli K-12 ML 1629; assay: as above; format: cell-based; settings: K12ML1629, 18 h, read-out: Minimum Inhibitory Concentration
[13] = tested on: Klebsiella pneumoniae 22 No. 3038; assay: as above; format: cell-based; settings: 22NO.3038, 18 h, read-out: Minimum Inhibitory Concentration
[14] = tested on: Escherichia coli LA290 R64; assay: as above; format: cell-based; settings: LA290R64, 18 h, read-out: Minimum Inhibitory Concentration
[15] = tested on: Escherichia coli K-12; assay: as above; format: cell-based; settings: read-out: Minimum Inhibitory Concentration
[16] = tested on: Escherichia coli JR66/W677; assay: as above; format: cell-based; settings: JR66/W677, 18 h, read-out: Minimum Inhibitory Concentration
[17] = tested on: Bacillus anthracis; assay: microbe, parasite or virus in culture; format: cell-based; settings: 18 h, read-out: Minimum Inhibitory Concentration
[18] = tested on: Bacillus cereus ATCC 10702; assay: Minimum inhibitory concentration, serial dilution on nutrient agar; format: cell-based; settings: read-out: Minimum Inhibitory Concentration
[19] = tested on: Escherichia coli LA290 R56; assay: as above; format: cell-based; settings: LA290R56, 18 h, read-out: Minimum Inhibitory Concentration
[20] = tested on: Corynebacterium bovis 1810; assay: as above; format: cell-based; settings: Corynebacterium bovis, 1810, 18 h, read-out: Minimum Inhibitory Concentration
[21] = tested on: Escherichia coli NIHJ; assay: as above; format: cell-based; settings: 18 h, read-out: Minimum Inhibitory Concentration
[22] = tested on: Staphylococcus aureus Terajima; assay: as above; format: cell-based; settings: read-out: Minimum Inhibitory Concentration
[23] = tested on: Sarcina lutea PCI 1001; assay: as above; format: cell-based; settings: Micrococcus luteus, read-out: Minimum Inhibitory Concentration
[24] = tested on: Pseudomonas aeruginosa GN315; assay: as above; format: cell-based; settings: read-out: Minimum Inhibitory Concentration
[25] = tested on: Pseudomonas aeruginosa 99; assay: as above; format: cell-based; settings: read-out: Minimum Inhibitory Concentration
[26] = tested on: Escherichia coli K-12 ML 1410; assay: as above; format: cell-based; settings: K12ML1410, 18 h, read-out: Minimum Inhibitory Concentration
[27] = tested on: Salmonella typhosa T-63; assay: as above; format: cell-based; settings: Salmonella enterica, 18 h, read-out: Minimum Inhibitory Concentration
[28] = tested on: Bacillus subtilis PCI 219; assay: as above; format: cell-based; settings: read-out: Minimum Inhibitory Concentration
[29] = tested on: Escherichia coli K-12 ML 1630; assay: as above; format: cell-based; settings: K12ML1630, 37°C, 18 hours
Experimental: as §1, §2

[30] = tested on: Shigella sonnei JS 11746; assay: as above; format: cell-based; settings: JS11746, 37°C, 18 hours
Experimental: as §1, §2

[31] = tested on: Pseudomonas aeruginosa TI-13; assay: as above; format: cell-based; settings: TI13, 37°C, 18 hours
Experimental: as §1, §2

[32] = tested on: Shigella flexneri 4b JS 11811; assay: as above; format: cell-based; settings: 4BJS11811, 37°C, 18 hours
Experimental: as §1, §2

[33] = tested on: Pseudomonas aeruginosa A3; assay: as above; format: cell-based; settings: 37°C, 18 hours
Experimental: as §1, §2

[34] = tested on: drug-resistant strains of Escherichia coli and Pseudomonas aeruginosa; assay: antibacterial activity against drug-resistant strains, in words; format: cell-based
[35] = tested on: Mycobacterium smegmatis ATCC 607; assay: Minimum inhibitory concentration, serial dilution on nutrient agar; format: cell-based; settings: Mycolicibacterium smegmatis, read-out: Minimum Inhibitory Concentration
[36] = tested on: Bacillus subtilis NRRL B-558; assay: as above; format: cell-based; settings: read-out: Minimum Inhibitory Concentration
[37] = tested on: Proteus vulgaris OX 19; assay: as above; format: cell-based; settings: read-out: Minimum Inhibitory Concentration

| Compound | MIC [6] [µg/mL] | MIC [7] [µg/mL] | MIC [11] [µg/mL] | MIC [12] [µg/mL] | MIC [13] [µg/mL] | MIC [14] [µg/mL] | MIC [16] [µg/mL] | MIC [17] [µg/mL] | MIC [19] [µg/mL] | MIC [20] [µg/mL] | MIC [21] [µg/mL] | MIC [26] [µg/mL] | MIC [27] [µg/mL] | MIC [29] [µg/mL] | MIC [30] [µg/mL] | MIC [31] [µg/mL] | MIC [32] [µg/mL] | MIC [33] [µg/mL] | further results |
| --- | --- | --- | --- | --- | --- | --- | --- | --- | --- | --- | --- | --- | --- | --- | --- | --- | --- | --- | --- |
| NCC(O)C(=O)N[C@@H]1C[C@H](N)[C@@H](O[C@H]2O[C@H](CN)[C@@H](O)[C@H](O)[C@H]2O)[C@H](O)[C@H]1O[C@H]1O[C@H](CO)[C@@H](O)[C@H](N)[C@H]1O (mixture of isomers) [1-IS-KM, 1-N-DL-isoserylkanamycin] | 1.56 | 1.56 | 3.13 | 1.56 | 1.56 | 0.78 | 3.13 | < 0.2 | 0.78 | 1.56 | 1.56 | 1.56 | 0.78 | 1.56 | 1.56 | 3.13 | 3.13 | 3.13 | antibacterial activity [1]: high antibacterial activity; MIC ([2]; 37°C, 18 hours): 0.78 µg/mL; MIC ([3]; W677, 37°C, 18 hours): 0.78 µg/mL; MIC ([4]; NO.12, 37°C, 18 hours): 0.78 µg/mL; MIC ([5]; 37°C, 18 hours): 0.78 µg/mL; MIC ([8]; PCI602, 37°C, 18 hours): 0.39 µg/mL; LD50 [9]: > 200 mg/kg; MIC ([10]; 37°C, 18 hours): 0.2 µg/mL; MIC ([15]; K12, 37°C, 18 hours): 0.78 µg/mL; MIC ([18]; ATCC10702, 37°C, 18 hours): 0.78 µg/mL; MIC ([22]; 37°C, 18 hours): < 0.2 µg/mL; MIC ([23]; PCI1001, 37°C, 18 hours): 3.12 µg/mL; MIC ([24]; GN315, 37°C, 18 hours): > 100 µg/mL; MIC ([25]; Pseudomonas aeruginosa, 99, 37°C, 18 hours): 6.25 µg/mL; MIC ([28]; PCI219, 37°C, 18 hours): < 0.2 µg/mL; antibacterial activity [34]: high antibacterial activity; MIC ([35]; ATCC607, 37°C, 18 hours): 0.39 µg/mL; MIC ([36]; NRRLB558, 37°C, 18 hours): < 0.2 µg/mL; MIC ([37]; OX19, 37°C, 18 hours): 0.39 µg/mL |
| NC[C@H]1O[C@H](O[C@H]2[C@H](O)[C@@H](O[C@H]3O[C@H](CO)[C@@H](O)[C@H](N)[C@H]3O)[C@H](N)C[C@@H]2N)[C@H](N)[C@@H](O)[C@@H]1O [KMB, kanamycin B, reference compound] | 12.5 (≈ 25.9 µM) | > 100 | 3.13 (≈ 6.47 µM) | > 100 | > 100 | 3.13 (≈ 6.47 µM) | > 100 | < 0.2 | 3.13 (≈ 6.47 µM) | 1.56 (≈ 3.23 µM) | 0.78 (≈ 1.61 µM) | 0.78 (≈ 1.61 µM) | 0.2 (≈ 0.414 µM) | > 100 | 1.56 (≈ 3.23 µM) | 100 (≈ 207 µM) | 3.13 (≈ 6.47 µM) | 50 (≈ 103 µM) | MIC ([2]; 18 h): 0.39 µg/mL (≈ 0.807 µM); MIC ([3]; W677, 18 h): 0.39 µg/mL (≈ 0.807 µM); MIC ([4]; NO.12, 18 h): 12.5 µg/mL (≈ 25.9 µM); MIC ([5]; 18 h): 1.56 µg/mL (≈ 3.23 µM); MIC ([8]; PCI602, 18 h): 0.78 µg/mL (≈ 1.61 µM); MIC ([10]; 18 h): < 0.2 µg/mL; MIC ([15]; K12, 18 h): 0.78 µg/mL (≈ 1.61 µM); MIC ([18]; ATCC10702, 18 h): 0.78 µg/mL (≈ 1.61 µM); MIC ([22]; 18 h): < 0.2 µg/mL; MIC ([23]; PCI1001, 18 h): 1.56 µg/mL (≈ 3.23 µM); MIC ([24]; GN315, 18 h): > 100 µg/mL; MIC ([25]; Pseudomonas aeruginosa, 99, 18 h): > 100 µg/mL; MIC ([28]; PCI219, 18 h): < 0.2 µg/mL; MIC ([35]; ATCC607, 18 h): 0.78 µg/mL (≈ 1.61 µM); MIC ([36]; NRRLB558, 18 h): < 0.2 µg/mL; MIC ([37]; OX19, 18 h): 0.78 µg/mL (≈ 1.61 µM) |
